Patent US5346828A, “Stereoisomeric enrichment of 2-amino-3-hydroxy-3-phenylpropionic acids using d-threonine aldolase” (Celgene Corporation, priority 1992, dated 1994)

Assay: incubation of substrate in the same buffer without enzyme (Enzyme 0), HPLC
Type: physicochemical
Procedure: D,L-Threo 2-amino-2-methyl-3-hydroxy-3-phenylpropionic acid (14.1 mM) is incubated at pH 8.75 in 50 mM borate buffer and 0.8 mM pyridoxal phosphate with ruptured cells containing approximately 300 μL of enzyme.
At time intervals of approximately 30, 120 and 210 minutes, 200 μL of the incubation mixture are removed and diluted with 800 μL of 1% perchloric acid. After centrifugation of this mixture, the supernatant is analyzed on HPLC.

- Percentage of total area attributable to benzaldehyde and benzoic acid (30 min.): 0%
- Percentage of total area attributable to benzaldehyde and benzoic acid (120 min.): 2.2%
- Percentage of total area attributable to benzaldehyde and benzoic acid (210 min.): 3.7%
SMILES: N[C@H](C(=O)O)[C@H](O)c1ccccc1 (relative stereo) [t.phi.S, 2amino-3-hydroxy-3-phenylpropionic acid]
